Experimental data reported in US20240101573A1, “MACROCYCLIC K-RAS G12C INHIBITOR, PREPARATION METHOD THEREFOR AND USE THEREOF” (Abbisko Therapeutics Co., Ltd., priority 2020, published 2024).

Assays:
H358 = test: Anti-proliferation 2D CTG test (H358); format: cell-based; conditions: H358 cells, 1500 cells/well, 5 days incubation with compound, CTG readout
Description: (§1) When the cell confluency was 80%, the cells were isolated with 0.25% trypsin. The isolated cells were resuspended in 5 mL of fresh cell culture medium and centrifuged to collect the cells. The number of cells were counted at the same time. Then, the cells were suspended in a culture medium at a moderate concentration. The cells were placed into a 96-well plate with 1500 cells/well for H358 and 500 cells/well for MIAPACA-2. The 96-well plate was placed in an incubator at 37° C. and incubated overnight.
(§2) 2) Day 1: processing of compound
(§3) A 2 mM stock solution was serially diluted at 10 points at a ratio of 1:3. 5× culture medium containing the compound was transferred to the corresponding wells of 96 wells. The final peak concentration of the compound was […], and the final concentration of DMSO was 0.5%. The 96-well plate was placed in the incubator at 37° C. and incubated for 5 days.
(§4) 3) Baseline reading. 4) Day 6: reading of signals
(§5) A detection reagent (CTG) was added at 50 μL/well, and the signals were read in an Envision instrument.
(§6) The percentage of inhibition ([…]) at each compound concentration was calculated based on the signals from the HPE and ZPE control wells contained in each assay plate and the fluorescence signals from individual compound wells. The inhibition rate in the ZPE control wells containing the enzyme and substrate was 0%, and the inhibition rate in the HPE control wells only containing the substrate was […]. By testing the compound in terms of numeric concentration and inhibition percentage, the compound concentration required for […] inhibition (IC50) was determined using a four-parameter logarithmic dose-response equation. The endpoint value (IC50) of the reference compound was evaluated in each experiment as a quality control measure. If the endpoint value was within three times the expected value, the experiment was considered acceptable.

MIA PaCa-2 = test: Anti-proliferation 2D CTG test (MIA PaCa-2); format: cell-based; conditions: MIAPACA-2 cells, 500 cells/well, 5 days incubation with compound, CTG readout
Description: as §1, §2, §3, §4, §5, §6

[1] = Homo sapiens, MIA PaCa-2, 120 h

IC50 (H358; Homo sapiens, NCI-H358, 120 h) [nM] | IC50 (MIA PaCa-2; [1]) [nM] | IC50 (H358) [nM] | IC50 (MIA PaCa-2) [nM] | Compound
– | – | 461 | 314 | C=CC(=O)N1C[C@H](C)N(c2nc(=O)n3c4nc(c(F)cc24)-c2c(F)cccc2OCC(O)C(OCC)c2ccnc(C(C)C)c2-3)C[C@H]1C (stereo partly drawn) [Example 58, (S)-2^4-((2S,5R)-4-acryloyl-2,5-dimethylpiperazin-1-yl)-7-ethoxy-2^6,3^6-difluoro-6-hydroxy-1^2-isopropyl-2^1,2^2-dihydro-4-oxa-2(1,7)-pyrido[2,3-d]pyrimidina-1(3,4)-pyridina-3(1,2)-benzocycloheptane-2^2-one]
– | – | 5 | 3 | C=CC(=O)N1C[C@H](C)N(c2nc(=O)n3c4nc(c(F)cc24)-c2c(ccc(Cl)c2F)OCC(OCC)C(O)c2ccnc(C(C)C)c2-3)C[C@H]1C (stereo partly drawn) [Example 78, (R)-2^4-((2S,5R)-4-acryloyl-2,5-dimethylpiperazin-1-yl)-3^5-chloro-6-ethoxy-2^6,3^6-difluoro-7-hydroxy-1^2-isopropyl-2^1,2^2-dihydro-4-oxa-2(1,7)-pyrido[2,3-d]pyrimidina-1(3,4)-pyridina-3(1,2)-benzocycloheptane-2^2-one]
– | – | 1320 | 859 | C=CC(=O)N1CCN(c2nc(=O)n3c4nc(c(F)cc24)-c2c(ccc(Cl)c2F)OCC(O)C(O)c2ccnc(C(C)C)c2-3)[C@@H](C)C1 (stereo partly drawn) [Example 67, (S)-2^4-((S)-4-acryloyl-2-methylpiperazin-1-yl)-3^5-chloro-2^6,3^6-difluoro-6,7-dihydroxy-1^2-isopropyl-2^1,2^2-dihydro-4-oxa-2(1,7)-pyrido[2,3-d]pyrimidina-1(3,4)-pyridina-3(1,2)-benzocycloheptane-2^2-one]
– | – | 4 | 4 | C=CC(=O)N1C[C@H](C)N(c2nc(=O)n3c4nc(c(F)cc24)-c2c(ccc(Cl)c2F)OCC(O)C(OCC)c2ccnc(C(C)C)c2-3)C[C@H]1C (stereo partly drawn) [Example 76, (R)-2^4-((2S,5R)-4-acryloyl-2,5-dimethylpiperazin-1-yl)-3^5-chloro-7-ethoxy-2^6,3^6-difluoro-6-hydroxy-1^2-isopropyl-2^1,2^2-dihydro-4-oxa-2(1,7)-pyrido[2,3-d]pyrimidina-1(3,4)-pyridina-3(1,2)-benzocycloheptane-2^2-one]
23 | 9 | – | – | C=CC(=O)N1CCN(c2nc(=O)n3c4nc(c(F)cc24)-c2c(F)cccc2OCC(OC)C(OC)c2ccnc(C(C)C)c2-3)[C@@H](C)C1 (stereo partly drawn) [Example 59, 2^4-((S)-4-acryloyl-2-methylpiperazin-1-yl)-2^6,3^6-difluoro-1^2-isopropyl-6,7-dimethoxy-2^1,2^2-dihydro-4-oxa-2(1,7)-pyrido[2,3-d]pyrimidina-1(3,4)-pyridina-3(1,2)-benzocycloheptane-2^2-one]

More lines, now with the values behind:

Compound | IC50 (H358; Homo sapiens, NCI-H358, 120 h) [nM] | IC50 (MIA PaCa-2; [1]) [nM] | IC50 (H358) [nM] | IC50 (MIA PaCa-2) [nM]
C=CC(=O)N1CCN(c2nc(=O)n3c4nc(c(F)cc24)-c2c(F)cccc2OCC(OCOC(=O)OC)C(OCOC(=O)OC)c2ccnc(C(C)C)c2-3)[C@@H](C)C1 (stereo partly drawn) [Example 17, ((2^4-((S)-4-acryloyl-2-methylpiperazin-1-yl)-2^6,3^6-difluoro-1^2-isopropyl-2^2-oxo-2^1,2^2-dihydro-4-oxa-2(1,7)-pyrido[2,3-d]pyrimidina-1(3,4)-pyridina-3(1,2)-benzocycloheptane-6,7-diyl)di(oxo))di(methylene) dimethyldi(carbonate)] | 9 | 9 | – | –
C=CC(=O)N1CCN(c2nc(=O)n3c4nc(c(F)cc24)-c2c(F)cccc2OCC(O)C(=O)c2ccnc(C(C)C)c2-3)[C@@H](C)C1 (stereo partly drawn) [Example 4, 2^4-((S)-4-acryloyl-2-methylpiperazin-1-yl)-2^6,3^6-difluoro-6-hydroxy-1^2-isopropyl-2^1,2^2-dihydro-4-oxa-2(1,7)-pyrido[2,3-d]primidina-1(3,4)-pyridina-3(1,2)-benzocycloheptane-2^2,7-dione] | 73 | 83 | – | –
C=CC(=O)N1CCN(c2nc(=O)n3c4nc(c(F)cc24)-c2c(F)cccc2OCC(OC(C)C)C(O)c2ccnc(C(C)C)c2-3)[C@@H](C)C1 (stereo partly drawn) [Example 56, (S)-2^4-((S)-4-acryloyl-2-methylpiperazin-1-yl)-6-isopropoxy-2^6,3^6-difluoro-7-hydroxy-1^2-isopropyl-2^1,2^2-dihydro-4-oxa-2(1,7)-pyrido[2,3-d]pyrimidina-1(3,4)-pyridina-3(1,2)-benzocycloheptane-2^2-one] | – | – | 221 | 218
C=CC(=O)N1CCN(c2nc(=O)n3c4nc(c(F)cc24)-c2c(F)cccc2OCC(OCC2CC2)C(O)c2ccnc(C(C)C)c2-3)[C@@H](C)C1 (stereo partly drawn) [Example 49, (R)-2^4-((S)-4-acryloyl-2-methylpiperazin-1-yl)-6-(cyclopropylmethoxy)-2^6,3^6-difluoro-7-hydroxy-1^2-isopropyl-2^1,2^2-dihydro-4-oxa-2(1,7)-pyrido[2,3-d]pyrimidina-1(3,4)-pyridina-3(1,2)-benzocycloheptane-2^2-one] | – | – | 7 | 6
C=CC(=O)N1CCN(c2nc(=O)n3c4nc(c(F)cc24)-c2c(F)cccc2OCC(OCCF)C(O)c2ccnc(C(C)C)c2-3)[C@@H](C)C1 (stereo partly drawn) [Example 25, 2^4-((S)-4-acryloyl-2-methylpiperazin-1-yl)-2^6,3^6-difluoro-6-(2-fluoroethoxy)-7-hydroxy-1^2-isopropyl-2^1,2^2-dihydro-4-oxa-2(1,7)-pyrido[2,3-d]pyrimidina-1(3,4)-pyridina-3(1,2)-benzocycloheptane-2^2-one] | – | – | 36 | 15
C=CC(=O)N1CCN(c2nc(=O)n3c4nc(c(F)cc24)-c2c(F)cccc2OCC(OC(C)=O)C(OC(C)=O)c2ccnc(C(C)C)c2-3)[C@@H](C)C1 (stereo partly drawn) [Example 18, 2^4-((S)-4-acryloyl-2-methylpiperazin-1-yl)-2^6,3^6-difluoro-1^2-isopropyl-2^2-oxo-2^1,2^2-dihydro-4-oxa-2(1,7)-pyrido[2,3-d]pyrimidina-1(3,4)-pyridina-3(1,2)-benzocycloheptane-6,7-diyl diacetate] | 14 | 6 | – | –
C=CC(=O)N1CCN(c2nc(=O)n3c4nc(c(F)cc24)-c2c(F)cccc2OCC(OC(C)=O)C(OC(C)=O)c2ccnc(C(C)C)c2-3)[C@@H](C)C1 (stereo partly drawn) [Example 18-S, (S)-2^4-((S)-4-acryloyl-2-methylpiperazin-1-yl)-2^6,3^6-difluoro-1^2-isopropyl-2^2-oxo-2^1,2^2-dihydro-4-oxa-2(1,7)-pyrido[2,3-d]pyrimidina-1(3,4)-pyridina-3(1,2)-benzocycloheptane-6,7-diyl diacetate] | – | – | 351 | 266
C=CC(=O)N1CCN(c2nc(=O)n3c4nc(c(F)cc24)-c2c(F)cccc2OCC(O)C(OCCF)c2ccnc(C(C)C)c2-3)[C@@H](C)C1 (stereo partly drawn) [Example 37, (R)-2^4-((S)-4-acryloyl-2-methylpiperazin-1-yl)-2^6,3^6-difluoro-7-(2-fluoroethoxy)-6-hydroxy-1^2-isopropyl-2^1,2^2-dihydro-4-oxa-2(1,7)-pyrido[2,3-d]pyrimidina-1(3,4)-pyridina-3(1,2)-benzocycloheptane-2^2-one] | – | – | 14 | 5
11-((S)-4-acryloyl-2-methylpiperazin-1-yl)-2-((dimethylamino)methyl)-15,21-difluoro-7-isopropyl-3a,20a-dihydro-9H,20H-12,14-(epiethane[1,2]diylidene)benzo[b][1,3]dioxazolo[4,5-j]pyri do[3,4-h]pyrimido[6,1-f][1]oxa[5,7]diazacyclododecin-9-one [Example 64] | – | – | 3 | 1
C=CC(=O)N1C[C@H](C)N(c2nc(=O)n3c4nc(c(F)cc24)-c2c(F)cccc2OCC(O)C(O)c2ccnc(C(C)C)c2-3)C[C@H]1C (stereo partly drawn) [Example 2, (R)-2^4-((2S,5R)-4-acryloyl-2,5-dimethylpiperazin-1-yl)-2^6,3^6-difluoro-6,7-dihydroxy-1^2-isopropyl-2^1,2^2-dihydro-4-oxa-2(1,7)-pyrido[2,3-d]pyrimidina-1(3,4)-pyridina-3(1,2)-benzocycloheptane-2^2-one] | – | – | 2 | 1
C=CC(=O)N1CCN(c2nc(=O)n3c4nc(c(F)cc24)-c2c(F)cccc2OCC(OC)C(O)c2ccnc(C(C)C)c2-3)[C@@H](C)C1 (stereo partly drawn) [Example 27, 24-((S)-4-acryloyl-2-methylpiperazin-1-yl)-6-methoxy-2^6,3^6-difluoro-7-hydroxy-1^2-isopropyl-2^1,2^2-dihydro-4-oxa-2(1,7)-pyrido[2,3-d]pyrimidina-1(3,4)-pyridina-3(1,2)-benzocycloheptane-2^2-one] | 9 | 4 | – | –
C=CC(=O)N1CCN(c2nc(=O)n3c4nc(c(F)cc24)-c2c(F)cccc2OCC(O)C(O)c2ccnc(C(C)C)c2-3)[C@@H](C)C1 (stereo partly drawn) [Example 1-S, (S)-2^4-((S)-4-acryloyl-2-methylpiperazin-1-yl)-2^6,3^6-difluoro-6,7-dihydroxy-1^2-isopropyl-2^1,2^2-dihydro-4-oxa-2(1,7)-pyrido[2,3-d]pyrimidina-1(3,4)-pyridina-3(1,2)-benzocycloheptane-2^2-one] | – | – | 931 | 100
